# System: MV-4-11 cells
# Assay: Gene expression microarray analysis (Affymetrix PrimeView) and GSEA
# Format: cell-based, human
# Set-up: RFU PODN (11730768_x_at) / Fold change /veh PODN (11730768_x_at) / RFU LINC00158 (11744669_a_at) / Fold change /veh LINC00158 (11744669_a_at) / RFU DUSP10 (11751237_a_at) / Fold change /veh DUSP10 (11751237_a_at) / RFU ID3 (11757404_x_at) / Fold change /veh ID3 (11757404_x_at) / RFU PLEKHG5 (11737974_s_at) / Fold change /veh PLEKHG5 (11737974_s_at) / RFU LRRC4B (11730491_at) / Fold change /veh LRRC4B (11730491_at) / RFU GIMAP4 (11747438_a_at) / Fold change /veh GIMAP4 (11747438_a_at) / RFU KRT8 (11758183_x_at) / Fold change /veh KRT8 (11758183_x_at) / RFU CNN1 (11734310_a_at) / Fold change /veh CNN1 (11734310_a_at) / RFU VPS37D (11726825_at) / Fold change /veh VPS37D (11726825_at) / RFU C10orf10 (11716522_x_at) / Fold change /veh C10orf10 (11716522_x_at) / RFU KIR2DL2 /// KIR2DL4 /// KIR2DL5A /// KIR2DL5B /// KIR2DS1 /// KIR2DS2 /// KIR2DS3 /// KIR2DS4 /// KIR3DL3 /// KIR3DL3 /// KIR3DS1 (11738374_at) / Fold change /veh KIR2DL2 /// KIR2DL4 /// KIR2DL5A /// KIR2DL5B /// KIR2DS1 /// KIR2DS2 /// KIR2DS3 /// KIR2DS4 /// KIR3DL3 /// KIR3DL3 /// KIR3DS1 (11738374_at) / RFU C1QL1 (11718748_at) / Fold change /veh C1QL1 (11718748_at) / RFU TMPRSS4 (11747572_a_at) / Fold change /veh TMPRSS4 (11747572_a_at) / RFU HAMP (11756126_x_at) / Fold change /veh HAMP (11756126_x_at) / RFU RNFT2 (11725882_a_at) / Fold change /veh RNFT2 (11725882_a_at) / RFU NR4A2 (11747474_a_at) / Fold change /veh NR4A2 (11747474_a_at) / RFU ABCC12 (11746883_a_at) / Fold change /veh ABCC12 (11746883_a_at) / RFU TMEM136 (11760407_x_at) / Fold change /veh TMEM136 (11760407_x_at) / RFU CLDN22 /// WWC2 (11732394_at) / Fold change /veh CLDN22 /// WWC2 (11732394_at) / RFU HLA-DPB1 (11760878_x_at) / Fold change /veh HLA-DPB1 (11760878_x_at) / RFU SPINT1 (11716480_a_at) / Fold change /veh SPINT1 (11716480_a_at) / RFU GAP43 (11754022_s_at) / Fold change /veh GAP43 (11754022_s_at) / RFU A4GNT (11735810_at) / Fold change /veh A4GNT (11735810_at) / RFU PRB3 (11715151_x_at) / Fold change /veh PRB3 (11715151_x_at) / RFU TUBB4B (11761932_at) / Fold change /veh TUBB4B (11761932_at) / RFU CAPN14 (11732068_a_at) / Fold change /veh CAPN14 (11732068_a_at) / RFU TMCC2 (11721928_a_at) / Fold change /veh TMCC2 (11721928_a_at) / RFU IRGQ (11745062_a_at) / Fold change /veh IRGQ (11745062_a_at) / RFU FAM174B (11720279_a_at) / Fold change /veh FAM174B (11720279_a_at) / RFU TMPRSS4 (11748680_a_at) / Fold change /veh TMPRSS4 (11748680_a_at) / RFU FAM212B (11763350_a_at) / Fold change /veh FAM212B (11763350_a_at) / RFU PLEKHG5 (11743358_a_at) / Fold change /veh PLEKHG5 (11743358_a_at) / RFU ZSCAN30 (11745921_a_at) / Fold change /veh ZSCAN30 (11745921_a_at) / RFU CMKLR1 (11741424_a_at) / Fold change /veh CMKLR1 (11741424_a_at) / RFU LOC101060620 /// MAPK8IP1 (11723275_at) / Fold change /veh LOC101060620 /// MAPK8IP1 (11723275_at) / RFU SPTSSB (11747773_x_at) / Fold change /veh SPTSSB (11747773_x_at) / RFU PRSS12 (11739890_at) / Fold change /veh PRSS12 (11739890_at) / RFU BIN1 (11741810_x_at) / Fold change /veh BIN1 (11741810_x_at) / RFU WNT11 (11732464_a_at) / Fold change /veh WNT11 (11732464_a_at) / RFU C10orf10 (11716521_a_at) / Fold change /veh C10orf10 (11716521_a_at) / RFU C5orf56 (11738089_at) / Fold change /veh C5orf56 (11738089_at) / RFU CYB561 (11721691_x_at) / Fold change /veh CYB561 (11721691_x_at) / RFU ANKRD19P (11752326_a_at) / Fold change /veh ANKRD19P (11752326_a_at) / RFU OR2T12 /// OR2T33 /// OR2T8 (11738714_s_at) / Fold change /veh OR2T12 /// OR2T33 /// OR2T8 (11738714_s_at) / RFU VCAN (11748164_a_at) / Fold change /veh VCAN (11748164_a_at) / RFU JSRP1 (11732532_at) / Fold change /veh JSRP1 (11732532_at) / RFU KRTAP10-11 (11738290_x_at) / Fold change /veh KRTAP10-11 (11738290_x_at) / RFU MYO3A (11730013_a_at) / Fold change /veh MYO3A (11730013_a_at) / RFU EBF3 (11725865_a_at) / Fold change /veh EBF3 (11725865_a_at) / RFU CAMK2N1 (11719241_x_at) / Fold change /veh CAMK2N1 (11719241_x_at) / RFU C5orf56 (11738088_a_at) / Fold change /veh C5orf56 (11738088_a_at) / RFU OLFML3 (11715873_a_at) / Fold change /veh OLFML3 (11715873_a_at) / RFU LOC100653217 /// NTM (11731650_a_at) / Fold change /veh LOC100653217 /// NTM (11731650_a_at) / RFU MAPK11 (11762145_a_at) / Fold change /veh MAPK11 (11762145_a_at) / RFU FIZ1 (11724087_x_at) / Fold change /veh FIZ1 (11724087_x_at) / RFU OASL (11726364_x_at) / Fold change /veh OASL (11726364_x_at) / RFU SOX15 (11748057_x_at) / Fold change /veh SOX15 (11748057_x_at) / RFU CD79A (11719716_a_at) / Fold change /veh CD79A (11719716_a_at) / RFU HIST1H1D (11736915_at) / Fold change /veh HIST1H1D (11736915_at) / RFU CASKIN2 (11723855_a_at) / Fold change /veh CASKIN2 (11723855_a_at) / RFU LOC730098 (11760151_x_at) / Fold change /veh LOC730098 (11760151_x_at) / RFU OR4N2 (11742367_at) / Fold change /veh OR4N2 (11742367_at) / RFU PRRT2 (11749266_a_at) / Fold change /veh PRRT2 (11749266_a_at) / RFU SNX32 (11753110_a_at) / Fold change /veh SNX32 (11753110_a_at) / RFU CDHR5 (11726645_a_at) / Fold change /veh CDHR5 (11726645_a_at) / RFU RCAN1 (11760418_a_at) / Fold change /veh RCAN1 (11760418_a_at) / RFU FAM167A (11723789_a_at) / Fold change /veh FAM167A (11723789_a_at) / RFU FAM26E (11764081_at) / Fold change /veh FAM26E (11764081_at) / RFU ISYNA1 (11749810_s_at) / Fold change /veh ISYNA1 (11749810_s_at) / RFU ACY1 (11761880_at) / Fold change /veh ACY1 (11761880_at) / RFU 11764098_at / Fold change /veh 11764098_at / RFU SAMD14 (11745864_x_at) / Fold change /veh SAMD14 (11745864_x_at) / RFU NPB (11741838_a_at) / Fold change /veh NPB (11741838_a_at) / RFU TMPRSS6 (11731388_a_at) / Fold change /veh TMPRSS6 (11731388_a_at) / RFU KRTAP10-2 (11738614_at) / Fold change /veh KRTAP10-2 (11738614_at) / RFU ARHGAP8 /// PRR5-ARHGAP8 (11727945_x_at) / Fold change /veh ARHGAP8 /// PRR5-ARHGAP8 (11727945_x_at) / RFU KRTAP5-7 /// NADSYN1 (11734609_at) / Fold change /veh KRTAP5-7 /// NADSYN1 (11734609_at) / RFU RASL12 (11751679_a_at) / Fold change /veh RASL12 (11751679_a_at) / RFU CDKN2B (11736163_a_at) / Fold change /veh CDKN2B (11736163_a_at) / RFU PRF1 (11729649_at) / Fold change /veh PRF1 (11729649_at) / RFU, ZNF638 /// ZNF638-IT1 / Fold change vs veh, ZNF638 /// ZNF638-IT1 / RFU, PANK3 / Fold change vs veh, PANK3 / RFU, SH3YL1 / Fold change vs veh, SH3YL1 / RFU, ZEB2 / Fold change vs veh, ZEB2 / RFU, NRIP1 / Fold change vs veh, NRIP1 / RFU, PTTG1IP / Fold change vs veh, PTTG1IP / RFU, CAPN2 / Fold change vs veh, CAPN2 / RFU, MED14 / Fold change vs veh, MED14 / RFU, SNORA58 / Fold change vs veh, SNORA58 / RFU, C1orf63 / Fold change vs veh, C1orf63 / RFU, LRRFIP1 / Fold change vs veh, LRRFIP1 / RFU, NDUFAF7 / Fold change vs veh, NDUFAF7 / RFU, SLC12A2 / Fold change vs veh, SLC12A2 / RFU, IBTK / Fold change vs veh, IBTK / RFU, ESF1 / Fold change vs veh, ESF1 / Fold change vs veh, TMEM50B / RFU, TAOK1 / Fold change vs veh, TAOK1 / RFU, ACBD3 / Fold change vs veh, ACBD3 / RFU, TMA16 / Fold change vs veh, TMA16 / RFU, RWDD3 / Fold change vs veh, RWDD3 / RFU, BCAT1 / Fold change vs veh, BCAT1 / RFU, EDEM3 / Fold change vs veh, EDEM3 / RFU, TMEM33 / Fold change vs veh, TMEM33 / RFU, WDR75 / Fold change vs veh, WDR75 / RFU, AHCTF1 / Fold change vs veh, AHCTF1 / RFU, TFRC / Fold change vs veh, TFRC / RFU, ZDHHC17 / Fold change vs veh, ZDHHC17 / RFU, NOM1 / Fold change vs veh, NOM1 / RFU, ARL8B / Fold change vs veh, ARL8B / RFU, ZBTB11 / Fold change vs veh, ZBTB11 / RFU, TAMM41 / Fold change vs veh, TAMM41 / RFU, KIAA1704 /// LOC100996395 / Fold change vs veh, KIAA1704 /// LOC100996395 / RFU, ING1 / Fold change vs veh, ING1 / RFU, TRMT61B / Fold change vs veh, TRMT61B / RFU, FUBP3 / Fold change vs veh, FUBP3 / RFU, TP53 / Fold change vs veh, TP53 / RFU, TNKS2 / Fold change vs veh, TNKS2 / RFU, ZFP14 / Fold change vs veh, ZFP14 / RFU, ACTR2 / Fold change vs veh, ACTR2 / RFU, PPP3R1 / Fold change vs veh, PPP3R1 / RFU, PIK3R1 / Fold change vs veh, PIK3R1 / RFU, HNRNPA1 / Fold change vs veh, HNRNPA1 / RFU, RNF170 / Fold change vs veh, RNF170 / RFU, ZNF28 / Fold change vs veh, ZNF28 / RFU, RNGTT / Fold change vs veh, RNGTT / RFU, OGT / Fold change vs veh, OGT / RFU, BRD1 / Fold change vs veh, BRD1 / RFU, MARS / Fold change vs veh, MARS / RFU, ZNF655 / Fold change vs veh, ZNF655 / RFU, FAHD1 / Fold change vs veh, FAHD1 / RFU, BDP1 / Fold change vs veh, BDP1 / RFU, LRRCC1 / Fold change vs veh, LRRCC1 / RFU, ARID1A / Fold change vs veh, ARID1A / RFU, ZNF146 / Fold change vs veh, ZNF146 / RFU, ZNF330 / Fold change vs veh, ZNF330 / RFU, GPN3 / Fold change vs veh, GPN3 / RFU, C9orf123 / Fold change vs veh, C9orf123 / RFU, N4BP2L2 / Fold change vs veh, N4BP2L2 / RFU, ARFIP1 / Fold change vs veh, ARFIP1 / RFU, FAM179B / Fold change vs veh, FAM179B / RFU, BCL10 / Fold change vs veh, BCL10 / RFU, UHRF1BP1L / Fold change vs veh, UHRF1BP1L / RFU, BET1 / Fold change vs veh, BET1 / RFU, CNOT2 / Fold change vs veh, CNOT2 / RFU, ZNF268 / Fold change vs veh, ZNF268 / Fold change vs veh, ZNF507 / RFU, DGCR2 / Fold change vs veh, DGCR2 / RFU, WDSUB1 / Fold change vs veh, WDSUB1 / Fold change vs veh, HSP90B1 /// MIR3652 / RFU, ADSS / Fold change vs veh, ADSS / RFU, GK / Fold change vs veh, GK / RFU, ZNF148 / Fold change vs veh, ZNF148 / RFU, TAF9 / Fold change vs veh, TAF9 / RFU, SLC1A5 / Fold change vs veh, SLC1A5 / RFU, SLMO2 / Fold change vs veh, SLMO2 / RFU, ABCC4 / Fold change vs veh, ABCC4 / RFU, LOC101060439 /// RAP1B / Fold change vs veh, LOC101060439 /// RAP1B / RFU, RFX7 / Fold change vs veh, RFX7 / RFU, GTPBP10 / Fold change vs veh, GTPBP10 / RFU, CNEP1R1 / Fold change vs veh, CNEP1R1 / RFU, BIVM-ERCC5 /// ERCC5 / Fold change vs veh, BIVM-ERCC5 /// ERCC5 / RFU, ILF3 / Fold change vs veh, ILF3 / RFU 11762660_at / Fold change /veh 11762660_at / RFU VCAN (11757783_s_at) / Fold change /veh VCAN (11757783_s_at) / RFU DDX43 (11728927_at) / Fold change /veh DDX43 (11728927_at) / RFU KRT8 (11758188_x_at) / Fold change /veh KRT8 (11758188_x_at) / RFU NKD1 (11759106_at) / Fold change /veh NKD1 (11759106_at) / RFU SRD5A1 (11742802_a_at) / Fold change /veh SRD5A1 (11742802_a_at) / RFU TPSAB1 /// TPSB2 (11721975_s_at) / Fold change /veh TPSAB1 /// TPSB2 (11721975_s_at) / RFU GSTM3 (11746129_a_at) / Fold change /veh GSTM3 (11746129_a_at) / RFU IL23R (11737362_x_at) / Fold change /veh IL23R (11737362_x_at) / RFU TMEM51 (11727254_a_at) / Fold change /veh TMEM51 (11727254_a_at) / RFU PIWIL2 (11732686_x_at) / Fold change /veh PIWIL2 (11732686_x_at) / RFU ORM1 (11744905_x_at) / Fold change /veh ORM1 (11744905_x_at) / RFU CCDC152 (11743942_at) / Fold change /veh CCDC152 (11743942_at) / RFU ECM1 (11717891_a_at) / Fold change /veh ECM1 (11717891_a_at) / RFU IL23R (11748794_a_at) / Fold change /veh IL23R (11748794_a_at) / RFU TNFAIP8L3 (11732012_x_at) / Fold change /veh TNFAIP8L3 (11732012_x_at) / RFU MBOAT4 (11741988_at) / Fold change /veh MBOAT4 (11741988_at) / RFU 11764193_at / Fold change /veh 11764193_at / RFU TMEM53 (11763286_at) / Fold change /veh TMEM53 (11763286_at) / RFU MAGEB2 (11727129_at) / Fold change /veh MAGEB2 (11727129_at) / RFU TMEM200A (11744735_a_at) / Fold change /veh TMEM200A (11744735_a_at) / RFU CCDC152 (11751479_a_at) / Fold change /veh CCDC152 (11751479_a_at) / RFU FAM211A (11726209_a_at) / Fold change /veh FAM211A (11726209_a_at) / RFU RGS16 (11746705_a_at) / Fold change /veh RGS16 (11746705_a_at) / RFU VCAN (11755009_s_at) / Fold change /veh VCAN (11755009_s_at) / RFU RHOB (11743442_s_at) / Fold change /veh RHOB (11743442_s_at) / RFU RGS16 (11720943_a_at) / Fold change /veh RGS16 (11720943_a_at) / RFU RGS16 (11720944_at) / Fold change /veh RGS16 (11720944_at) / RFU, VPS4B / Fold change vs veh, VPS4B / RFU, CREB1 / Fold change vs veh, CREB1 / RFU, DNAJC13 / Fold change vs veh, DNAJC13 / RFU, GNAQ / Fold change vs veh, GNAQ / RFU, CDK5R1 / Fold change vs veh, CDK5R1 / RFU, ZRANB3 / Fold change vs veh, ZRANB3 / RFU, CUL4A / Fold change vs veh, CUL4A / RFU, CCNY / Fold change vs veh, CCNY / RFU, UFL1 / Fold change vs veh, UFL1 / RFU, COG3 / Fold change vs veh, COG3 / RFU, DIAPH2 / Fold change vs veh, DIAPH2 / RFU, SKA2 / Fold change vs veh, SKA2 / RFU, AFF3 / Fold change vs veh, AFF3 / RFU, LMF1 / Fold change vs veh, LMF1 / RFU, IPO11 / Fold change vs veh, IPO11 / RFU, DFFB / Fold change vs veh, DFFB / RFU, FOXP1 / Fold change vs veh, FOXP1 / RFU, CARD8 / Fold change vs veh, CARD8 / RFU, STRN3 / Fold change vs veh, STRN3 / RFU, ADK / Fold change vs veh, ADK / RFU, RASSF2 / Fold change vs veh, RASSF2 / RFU, WIPF1 / Fold change vs veh, WIPF1 / RFU, LARP1B / Fold change vs veh, LARP1B / RFU, RASA1 / Fold change vs veh, RASA1 / RFU, RB1 / Fold change vs veh, RB1 / RFU, PPFIA1 / Fold change vs veh, PPFIA1 / RFU, MAT2A / Fold change vs veh, MAT2A / RFU, CCT5 / Fold change vs veh, CCT5 / RFU, WDR92 / Fold change vs veh, WDR92 / RFU, CUX1 / Fold change vs veh, CUX1 / RFU, TTC7A / Fold change vs veh, TTC7A / RFU, TMEM135 / Fold change vs veh, TMEM135 / RFU, DEPTOR / Fold change vs veh, DEPTOR / RFU, CPM / Fold change vs veh, CPM / RFU, DNAJB6 / Fold change vs veh, DNAJB6 / RFU, CACNA2D3 / Fold change vs veh, CACNA2D3 / RFU, DTX4 / Fold change vs veh, DTX4 / RFU, TFCP2 / Fold change vs veh, TFCP2 / RFU, GMCL1 /// GMCL1P1 / Fold change vs veh, GMCL1 /// GMCL1P1 / RFU, AEBP2 / Fold change vs veh, AEBP2 / RFU, SNHG1 /// SNORD22 /// SNORD25 /// SNORD26 /// SNORD27 /// SNORD28 /// SNORD29 /// SNORD31 / Fold change vs veh, SNHG1 /// SNORD22 /// SNORD25 /// SNORD26 /// SNORD27 /// SNORD28 /// SNORD29 /// SNORD31 / Fold change (Aza/veh), C12orf56 (ProbeSet 11735607_a_at) / Fold change (ACY-1035/veh), C12orf56 (ProbeSet 11735607_a_at) / Fold change (Aza/veh), FGFR1OP (ProbeSet 11751329_s_at) / Fold change (ACY-1035/veh), FGFR1OP (ProbeSet 11751329_s_at) / Fold change (Aza/veh), VPS36 (ProbeSet 11739960_a_at) / Fold change (ACY-1035/veh), VPS36 (ProbeSet 11739960_a_at) / RFU SYPL1 (11715823_x_at) / Fold change /veh SYPL1 (11715823_x_at) / RFU IGFBP7 (11715501_s_at) / Fold change /veh IGFBP7 (11715501_s_at) / RFU REEP3 (11722064_at) / Fold change /veh REEP3 (11722064_at) / RFU IGLL1 (11728026_x_at) / Fold change /veh IGLL1 (11728026_x_at): dose or concentration left out as unconfirmed
# Settings: ProbeSet 11756954_s_at; LIST B
smiles,measurement,value
Nc1ccc(-c2cccs2)cc1NC(=O)c1ccc2c(c1)cc(C1CC1)n2CCN1CCOCC1 [ACY-1035],"RFU, ZEB2",1361.36 RFU
